Type in all cases: cell-based
Series [1] has as its system MDA-MB-231 cells. As to the kind of experiment: Drug response, 2D controls on tissue culture plastic. The note with it: for EC50 / IC50: 2D culture. As to the method:
MDA-MB-231 cells were trypsinized, counted, and seeded in a fibronectin coated (10 μg/mL), 96 well plate at a density of 5,000 cells/well in serum-containing medium. To measure the drug response of cells independent of encapsulation, pre-encapsulation conditions were replicated by allowing the cells to adhere overnight followed by culture in serum-free medium for 48 hr. DOX, PAC, and 5-FU were reconstituted in DMSO to a stock concentration of 172.4, 58.5, and 384.6 mM, respectively. Stock solutions were diluted in medium to a range of concentrations: DOX (0.001, 0.01, 0.1, 1, 10, 100, or 1000 μM), PAC (0.001, 0.01, 0.1, 1, 10, or 100 μM), and 5-FU (0.001, 0.01, 0.1, 1, 10, 100, or 1000 μM) and added to the MDA-MB-231 cells for 48 hr (n=6 wells per concentration). 46 At the highest drug concentration tested, the DMSO concentration remained […]; thus, 0.1% (v/v) DMSO was used as a vehicle control in 2D studies. Cells were rinsed in PBS twice to remove excess medium, followed by labeling with a Live/Dead® cell viability kit (Invitrogen). Only live cells were labeled, as dead cells detached from the wells and were washed away. Labeled cells were imaged using the proper filter cubes and analyzed using FIJI software (NIH).
(§1) For statistical comparison between viability values, distribution normality was assessed via quantification of skewness and kurtosis, where values within ±2 indicated a normal distribution. Equal variance among groups was additionally evaluated. A one-way analysis of variance (ANOVA) with a post-hoc Tukey-Kramer test was implemented to determine statistical significance between multiple groups. Unless otherwise Indicated, p<0.05 was considered statistically significant. Origin Lab software was used to fit DOX viability data. A nonlinear, growth/sigmoidal curve fit using a dose response function with a Levenberg Marquardt iteration algorithm was performed and allowed to converge for all conditions with a chi-square tolerance of 1E-9.
The response of MDA-MB-231 cells cultured on standard tissue culture plastic (2D) to DOX, PAC, and 5-FU was quantified as control. MDA-MB-231 cells were cultured on 96 well plates and serum-starved for 48 hr, following the same protocol used for encapsulation for ease of comparison. The MDA-MB-231 cells were exposed to drug-containing medium at the following concentrations (DOX: 0.001, 0.01, 0.1, 1, 10, 100, or 1000 μM; PAC: 0.001, 0.01, 0.1, 1, 10, or 100 μM; and 5-FU: 0.001, 0.01, 0.1, 1, 10, 100, or 1000 μM) for 48 hr. The live MDA-MB-231 cells were fluorescently labeled, imaged, and quantified (FIG. 1).

Series [2] concerns MDA-MB-231 cells. Nature of the series: Drug response, cells cultured in hydrogels. The note with it: for viability at 4000 µM / viability at 7000 µM / viability at 10000 µM / EC50 / IC50 / viability at 50 µM / viability at 550 µM / viability at 10 µM / viability at 1000 µM / viability at 100 µM: Homo sapiens; for viability at 4000 µM: 4 mM; for viability at 4000 µM / viability at 7000 µM / viability at 10000 µM / viability at 50 µM / viability at 550 µM / viability at 10 µM / viability at 1000 µM / viability at 100 µM: read-out: cell viability (normalized to vehicle control); for viability at 7000 µM: 7 mM; for viability at 10000 µM: 10 mM; for viability at 50 µM: 0.05 mM; for viability at 550 µM: 0.55 mM; for viability at 10 µM: 0.01 mM; for viability at 100 µM: 0.10 mM. More on the design: viability, times higher in cellular dormancy than growth state: dose or concentration left out as unconfirmed. As to the method: DOX, PAC, and 5-FU stocks were diluted in medium to desired concentrations: DOX (0.001, 0.01, 0.05, 0.1, 0.55, 1, or 2 mM), PAC (0.05, 0.1, 0.55, or 1 mM), and 5-FU (1.0, 4.0, 7.0, or 10 mM).
At the highest concentrations tested, the DMSO concentration ranged between 1-2% (v/v) for all drugs used. […] Thus, all vehicle controls used in this study contained medium with 1% (v/v) DMSO. […] 15 days post encapsulation, cell-laden hydrogels were rinsed with PBS and transferred to a new well plate for drug exposure for 48 hr. The hydrogels were rinsed twice with PBS to remove excess medium, followed by labeling with a Live/Dead® cell viability kit (Invitrogen) in PBS for 30 min, according to the manufacturer's instructions. The hydrogels were rinsed with PBS for 10 min to remove excess stain. Labeled hydrogels were placed on coverslips and imaged using structured Illumination on a Zeiss AxioObserver Z1 inverted fluorescent microscope as previously described. 32-34 Fluorescent z-stacks (z-height: 150 μm) were acquired approximately at the center of the hydrogels, between the bottom and top surfaces of each sample, and analyzed using FIJI software (NIH). Due to the red autofluorescence of DOX, only the live cells were imaged for viability studies. To quantify cell viability, the number of live cells was normalized to the number of live cells measured in the vehicle control. A minimum of 6 hydrogels were analyzed for each condition.
as §1

The test system of series [3] is MDA-MB-231 cells. Nature of the series: Doxorubicin accumulation and nuclear localization. The note with it: for nuclear to cytoplasmic (N/C) ratio: 48 hr. The method, then: Cells were encapsulated in hydrogel formulations that induced growth, balanced dormancy, or cellular dormancy for 15 days as described above. The medium was replaced with DOX-containing medium at a concentration of 0.05 mM. Four hydrogels for each formulation were imaged at varying time points (1, 2, 3, 5, 12, 20, 24, 48 hr). The mean cellular fluorescence intensity was measured and plotted against time to quantify intracellular DOX accumulation. To calculate the nuclear to cytoplasmic ratio, the fluorescence intensity measurements of the cytoplasmic and nuclear regions were acquired for each cell, with at least 70 cells measured per image. Due to its mechanism of action, DOX is known to primarily localize to the nucleus of DOX-sensitive cell lines. Studies quantifying DOX localization in multiple cell lines show alignment between high fluorescence intensity and the nucleus. Additionally, nuclear location was approximated based on areas of high fluorescence intensity with distinct morphological features (size, location).

The mark [4] stands for this setting: MDA-MB-231, 48 h, balanced dormancy, 48 hr.
Where [5] appears, read: MDA-MB-231, 48 h, cellular dormancy, 48 hr.
The mark [6] stands for this setting: MDA-MB-231, 48 h, growth state, 48 hr.
Where [7] appears, read: Homo sapiens, MDA-MB-231, 48 hr.
Where [8] appears, read: Homo sapiens, MDA-MB-231, 2D, 48 hr, read-out: cell viability.
Where [9] appears, read: MDA-MB-231, 48 h, balanced dormancy hydrogel, 48 hr.
Setting [10] is: MDA-MB-231, 48 h, cellular dormancy hydrogel, 48 hr.
Setting [11] is: MDA-MB-231, 48 h, growth state hydrogel, 48 hr.
Where [12] appears, read: MDA-MB-231, range over the three hydrogel formulations.

Each structure is given as a SMILES string. Like-named read-outs stand apart in the source and are kept apart here.

Results on four compounds are retold here after patent publication US12077741B2, “Crosslinked hydrogel compositions for regulating states of encapsulated cancer cells” (University Of Delaware, priority 2017, dated 2024).

With `O=c1[nH]cc(F)c(=O)[nH]1` [5-FU, 5-fluorouracil], a half-maximal response in the series on MDA-MB-231 cells [1] (Homo sapiens, MDA-MB-231, 48 h) (EC50) required 1.81 µM. In addition, the viability (usually a per cent measure of how many cells are alive, often set against a control) at 1000 µM in the series with MDA-MB-231 cells [1] (Homo sapiens, MDA-MB-231, 2D, 1 mM, 48 hr, read-out: cell viability) was determined as 65 ± 3%. For the same compound, the values for the viability at 4000 µM in the series on MDA-MB-231 cells [2] (setting [4]) and with MDA-MB-231 cells [2] (setting [5]) were 92 ± 4% and 100 ± 6%, respectively. The viability at 7000 µM is over 90% in the series on MDA-MB-231 cells [2] (MDA-MB-231, 48 h, both dormant states, 48 hr) and 80 ± 2% in the series on MDA-MB-231 cells [2] (setting [6]). For the same compound, the viability at 10000 µM in the series with MDA-MB-231 cells [2] (setting [5]) is 99 ± 4%; with MDA-MB-231 cells [2] (MDA-MB-231, 48 h, either dormant state, 48 hr), over 93%; in the series with MDA-MB-231 cells [2] (setting [6]) it was 75 ± 5%. The “cell viability (normalized to vehicle control)” value with MDA-MB-231 cells [2] (dormant cells, all concentrations tested) is listed as over 90%.
Turning to `C[S+](C)[O-]` [DMSO, Dimethyl Sulfoxide], the “cell viability vs serum-containing medium” value with MDA-MB-231 cells [2] (1 or 2% (v/v), growth hydrogel formulation, 48 hr) is given as “no significant differences”. For the same compound, the cytotoxicity entry in the series with MDA-MB-231 cells [2] (18%, 26% (v/v)) was “cytotoxic”.
For the compound `COc1cccc2c1C(=O)c1c(O)c3c(c(O)c1C2=O)C[C@@](O)(C(=O)CO)C[C@@H]3O[C@H]1C[C@H](N)[C@H](O)[C@H](C)O1` [DOX, doxorubicin], the “fold decrease in nuclear localization, dormant vs growth state” value in the series on MDA-MB-231 cells [3] is given as 1.5 fold. In addition, the “intracellular accumulation (mean fluorescence intensity) between the three phenotypic states” value in the series on MDA-MB-231 cells [3] (0.05 mM, over 48 hr) is “no statistically significant differences”. Further, the “nuclear to cytoplasmic (N/C) ratio” value in the series on MDA-MB-231 cells [3] (balanced dormancy, 0.05 mM) came to 2.3±0.8; in the series with MDA-MB-231 cells [3] (cellular dormancy, 0.05 mM), 2.4±1.0; in the series with MDA-MB-231 cells [3] (growth state, 0.05 mM) it was 3.5±2.3. For the same compound, the EC50 (commonly the concentration giving half of the maximal effect) was 0.006 µM with MDA-MB-231 cells [1] (Homo sapiens, MDA-MB-231, 48 h); 67.6 µM in the series on MDA-MB-231 cells [2] (setting [9]); 83.3 µM in the series with MDA-MB-231 cells [2] (setting [10]); 43.6 µM in the series with MDA-MB-231 cells [2] (setting [11]); 47.4 to 83.3 µM with MDA-MB-231 cells [2] (setting [12]). The concentration for half-maximal inhibition (IC50) (commonly the concentration that gives 50% inhibition) was 0.007 µM with MDA-MB-231 cells [1] (setting [7]); 58.3 µM in the series with MDA-MB-231 cells [2] (setting [9]); 79.9 µM with MDA-MB-231 cells [2] (setting [10]); 43.6 µM in the series with MDA-MB-231 cells [2] (setting [11]); 43.6 to 79.9 µM with MDA-MB-231 cells [2] (setting [12]). In addition, the viability at 100 µM in the series on MDA-MB-231 cells [1] (setting [8]) stood at 1%. Also, the “fold increase in IC50, balanced dormancy vs growth state” value in the series on MDA-MB-231 cells [2] came out at 1.3 fold. The “fold increase in IC50, cellular dormancy vs growth state” value in the series on MDA-MB-231 cells [2] is reported as 1.8 fold. Also, the “viability, times higher in cellular dormancy than growth state” value with MDA-MB-231 cells [2] (0.55) is 4-6 times. Further, the results for the viability at 50 µM in the series on MDA-MB-231 cells [2] (setting [4]), in the series on MDA-MB-231 cells [2] (setting [5]) and with MDA-MB-231 cells [2] (setting [6]) were 57 ± 2%, 62 ± 5% and 44 ± 3%, respectively. For the same compound, the figures for the viability at 550 µM in the series with MDA-MB-231 cells [2] (setting [4]), with MDA-MB-231 cells [2] (setting [5]) and with MDA-MB-231 cells [2] (setting [6]) were 16 ± 1%, 24 ± 3% and 5 ± 1%, respectively. For the same compound, the viability at 10 µM worked out at 91 ± 12% with MDA-MB-231 cells [2] (setting [5]) and 82 ± 1% in the series with MDA-MB-231 cells [2] (setting [6]).
Regarding `CC(=O)O[C@H]1C(=O)[C@@]2(C)[C@H]([C@H](OC(=O)c3ccccc3)[C@]3(O)C[C@H](OC(=O)[C@H](O)[C@@H](NC(=O)c4ccccc4)c4ccccc4)C(C)=C1C3(C)C)[C@]1(OC(C)=O)CO[C@@H]1C[C@@H]2O` [PAC, paclitaxel], the half-maximal effective concentration (EC50) with MDA-MB-231 cells [1] (48 hr) worked out at 0.761 µM; with MDA-MB-231 cells [1] (Homo sapiens, MDA-MB-231, 48 h), 0.716 µM. For the same compound, it took 0.651 µM to reach half-maximal inhibition in the series with MDA-MB-231 cells [1] (setting [7]) (IC50). Also, in the series with MDA-MB-231 cells [1] (Homo sapiens, MDA-MB-231, 2D, 0.01 μM, 48 hr, read-out: cell viability), the viability at 0.01 µM turned out to be 94 ± 13%. Also, the viability at 100 µM in the series on MDA-MB-231 cells [1] (setting [8]) was found to be 6 ± 2%; in the series with MDA-MB-231 cells [2] (setting [5]) it was 91 ± 6%; in the series with MDA-MB-231 cells [2] (setting [6]), 55 ± 4%. In addition, the viability at 550 µM turned out to be 86 ± 5% with MDA-MB-231 cells [2] (setting [4]), 84 ± 5% with MDA-MB-231 cells [2] (setting [5]) and 51 ± 4% in the series on MDA-MB-231 cells [2] (setting [6]). For the same compound, the viability at 1000 µM with MDA-MB-231 cells [2] (MDA-MB-231, 48 h, balanced dormancy, 1.00 mM, 48 hr) is 72 ± 3%; in the series with MDA-MB-231 cells [2] (MDA-MB-231, 48 h, cellular dormancy, 1 mM, 48 hr) it was 75 ± 3%; in the series on MDA-MB-231 cells [2] (MDA-MB-231, 48 h, dormant cells (either state), 1 mM, 48 hr), over 72%; with MDA-MB-231 cells [2] (MDA-MB-231, 48 h, growth state, 1 mM, 48 hr), 39 ± 4%.
